Several values for one entry are separate records, joined by “and”; a condition that tells them apart may be missing. Identical values can stand only once. Like-named read-outs stand apart in the source and are kept apart here.
Experiments:
HeLa1A9 cells = experiment: Toxicity toward HeLa1A9 cells during excretion experiments; type: cell-based, human; conditions: within the experimental concentration range
[1] = test system: UDP-glucuronosyltransferase 1A9 (UGT1A9); set-up: method as in Xia et al., 2014; conditions: ref Xia et al., 2014, cited from earlier work
BCRP [2] = target: T1, BCRP (Homo sapiens, UniProt Q9UNQ0); experiment: shRNA-mediated partial silencing of BCRP in HeLa1A9 cells, glucuronide excretion; type: cell-based; conditions: fraxetin 10 μM
T1 construct: BCRP, MRP1, MRP3, and MRP4 were detected in both wild-type HeLa and HeLa1A9 cells; endogenous in cells; host or cells: HeLa1A9 cells
T1 sequence (Q9UNQ0 1-655): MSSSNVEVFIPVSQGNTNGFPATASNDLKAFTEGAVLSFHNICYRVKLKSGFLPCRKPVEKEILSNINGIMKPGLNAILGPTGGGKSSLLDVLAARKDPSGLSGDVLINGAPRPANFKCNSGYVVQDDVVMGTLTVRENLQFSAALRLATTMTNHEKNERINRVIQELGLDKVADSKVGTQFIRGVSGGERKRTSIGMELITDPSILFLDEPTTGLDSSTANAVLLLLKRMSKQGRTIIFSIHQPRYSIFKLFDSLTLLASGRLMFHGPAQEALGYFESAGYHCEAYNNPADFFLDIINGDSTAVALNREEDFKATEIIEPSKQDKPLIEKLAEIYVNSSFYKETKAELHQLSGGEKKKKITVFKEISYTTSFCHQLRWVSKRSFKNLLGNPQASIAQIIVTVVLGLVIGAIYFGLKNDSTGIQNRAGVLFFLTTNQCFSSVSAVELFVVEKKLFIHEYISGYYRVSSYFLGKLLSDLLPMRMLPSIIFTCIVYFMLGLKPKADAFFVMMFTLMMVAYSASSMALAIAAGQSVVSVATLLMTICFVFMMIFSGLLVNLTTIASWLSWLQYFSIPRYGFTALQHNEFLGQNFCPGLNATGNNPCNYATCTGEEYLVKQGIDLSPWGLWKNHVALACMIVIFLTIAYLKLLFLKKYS
Protocol: (§1) The HeLa1A9 cells were pretreated and incubated with fraxetin solutions as reported previously ([Jiang et al., 2011]). Before assays, the HeLa1A9 cells were washed twice with prewarmed (37°C) Hank’s balanced salt solution (HBSS; pH = 7.4). After that, fraxetin (10 μM) dissolved in 2 mL of HBSS was incubated with the HeLa1A9 cells. At each time point (30, 60, 90, and 120 min), 200 μL of the culture supernatant from each well was collected as samples, and an equal volume of a loading media was used to replenish each well. Next, the collected samples were each mixed with 100 μL ice-cold acetonitrile. The supernatants were subjected to UHPLC analysis after centrifugation (10 min at 13800 × g).
(§2) In glucuronide excretion assays, biological inhibition mainly including shRNA-mediated partial silencing of BCRP and MRPs in HeLa cells was usually performed to evaluate the role of each efflux transporter ([Quan et al., 2015]; [Sun et al., 2015]; [Qin et al., 2018a]). Established shRNA_BCRP, shRNA_MRP1, shRNA_MRP3, and shRNA_MRP4 plasmids were transiently transfected into HeLa1A9 cells to develop the stably shRNA-transfected cell lines, named HeLa1A9-BCRP-shRNA cells, HeLa1A9-MRP1-shRNA, HeLa1A9-MRP3-shRNA, and HeLa1A9-MRP4-shRNA cells, respectively. […]
(§3) In addition, the excretion rate of intracellular glucuronides was calculated using Equ. […]

MRP1 = target: T2, MRP1 (Homo sapiens, UniProt P33527); experiment: shRNA-mediated partial silencing of MRP1 in HeLa1A9 cells, glucuronide excretion; type: cell-based; conditions: fraxetin 10 μM
T2 construct: BCRP, MRP1, MRP3, and MRP4 were detected in both wild-type HeLa and HeLa1A9 cells; endogenous in cells
Protocol: as §1, §2, §3

[3] = set-up: method as in Wang H. et al., 2016; conditions: rats; after oral administration of fraxin 50 mg/kg; ref Wang H. et al., 2016; cited from earlier work
MRP2 = test system: MRP2; set-up: method as in Sjöstedt et al., 2016; conditions: ref Sjöstedt et al., 2016; cited from earlier work
BCRP [4] = test system: BCRP; set-up: method as in Sjöstedt et al., 2016; conditions: ref Sjöstedt et al., 2016; cited from earlier work
α-glucosidase = target: α-glucosidase; set-up: method as in Milella et al., 2016; conditions: versus acarbose, a well-known α-glucosidase inhibitor; ref Milella et al., 2016; cited from earlier work
cystathionine β-synthase = test system: cystathionine β-synthase; set-up: method as in Thorson et al., 2013; conditions: cystathionine β-synthase inhibitor; ref Thorson et al., 2013; cited from earlier work
HeLa1A9 cell lysate = target: T3, HeLa1A9 cell lysate (Homo sapiens, UniProt O60656); experiment: Glucuronidation kinetics by HeLa1A9 cell lysate; type: in vitro ADME; conditions: metabolite propofol-G
T3 sequence (O60656 26-530): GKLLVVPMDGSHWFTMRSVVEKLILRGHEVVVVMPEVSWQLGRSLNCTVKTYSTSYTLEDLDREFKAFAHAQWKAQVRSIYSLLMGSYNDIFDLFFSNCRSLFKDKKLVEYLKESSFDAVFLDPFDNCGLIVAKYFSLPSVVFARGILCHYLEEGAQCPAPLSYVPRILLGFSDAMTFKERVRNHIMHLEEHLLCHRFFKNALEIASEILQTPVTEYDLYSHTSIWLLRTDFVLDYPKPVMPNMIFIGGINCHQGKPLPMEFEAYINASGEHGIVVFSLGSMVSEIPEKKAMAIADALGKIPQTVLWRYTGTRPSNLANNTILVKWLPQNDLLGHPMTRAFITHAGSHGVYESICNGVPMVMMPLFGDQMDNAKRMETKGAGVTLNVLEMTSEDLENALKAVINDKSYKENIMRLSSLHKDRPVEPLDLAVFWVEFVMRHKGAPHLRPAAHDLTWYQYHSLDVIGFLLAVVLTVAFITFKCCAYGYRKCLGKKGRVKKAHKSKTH
Protocol: The incubation system was slightly modified on the basis of a previously published article ([Qin et al., 2018a]). […] After preincubation at 37°C for 5 min, UDPGA (3.5 mM) was added to the reaction system, and the mixture was incubated for another 30 min. These reactions were terminated by the addition of an equal volume of ice-cold acetonitrile. The mixed samples were centrifuged at 13800 × g for 10 min, and the supernatant was analyzed by ultra-high-performance liquid chromatography (UHPLC). All the experiments were conducted in triplicate.
The enzyme kinetic parameters were obtained by fitting appropriate kinetic models to the experimental data in GraphPad Prism V5 software (San Diego, CA, United States). The best model was selected based on visual inspection of the Eadie–Hofstee plots ([Qin et al., 2018b]). In brief, if the Eadie–Hofstee plot was linear, formation rates (V) of glucuronides at different substrate concentrations (C) were fitted to the standard equations (1): […]
Where Km is the Michaelis–Menten constant, and Vmax is the maximum rate of glucuronidation. The intrinsic clearance (CLint) was computed as Vmax/Km.

T2 sequence (P33527 whole entry): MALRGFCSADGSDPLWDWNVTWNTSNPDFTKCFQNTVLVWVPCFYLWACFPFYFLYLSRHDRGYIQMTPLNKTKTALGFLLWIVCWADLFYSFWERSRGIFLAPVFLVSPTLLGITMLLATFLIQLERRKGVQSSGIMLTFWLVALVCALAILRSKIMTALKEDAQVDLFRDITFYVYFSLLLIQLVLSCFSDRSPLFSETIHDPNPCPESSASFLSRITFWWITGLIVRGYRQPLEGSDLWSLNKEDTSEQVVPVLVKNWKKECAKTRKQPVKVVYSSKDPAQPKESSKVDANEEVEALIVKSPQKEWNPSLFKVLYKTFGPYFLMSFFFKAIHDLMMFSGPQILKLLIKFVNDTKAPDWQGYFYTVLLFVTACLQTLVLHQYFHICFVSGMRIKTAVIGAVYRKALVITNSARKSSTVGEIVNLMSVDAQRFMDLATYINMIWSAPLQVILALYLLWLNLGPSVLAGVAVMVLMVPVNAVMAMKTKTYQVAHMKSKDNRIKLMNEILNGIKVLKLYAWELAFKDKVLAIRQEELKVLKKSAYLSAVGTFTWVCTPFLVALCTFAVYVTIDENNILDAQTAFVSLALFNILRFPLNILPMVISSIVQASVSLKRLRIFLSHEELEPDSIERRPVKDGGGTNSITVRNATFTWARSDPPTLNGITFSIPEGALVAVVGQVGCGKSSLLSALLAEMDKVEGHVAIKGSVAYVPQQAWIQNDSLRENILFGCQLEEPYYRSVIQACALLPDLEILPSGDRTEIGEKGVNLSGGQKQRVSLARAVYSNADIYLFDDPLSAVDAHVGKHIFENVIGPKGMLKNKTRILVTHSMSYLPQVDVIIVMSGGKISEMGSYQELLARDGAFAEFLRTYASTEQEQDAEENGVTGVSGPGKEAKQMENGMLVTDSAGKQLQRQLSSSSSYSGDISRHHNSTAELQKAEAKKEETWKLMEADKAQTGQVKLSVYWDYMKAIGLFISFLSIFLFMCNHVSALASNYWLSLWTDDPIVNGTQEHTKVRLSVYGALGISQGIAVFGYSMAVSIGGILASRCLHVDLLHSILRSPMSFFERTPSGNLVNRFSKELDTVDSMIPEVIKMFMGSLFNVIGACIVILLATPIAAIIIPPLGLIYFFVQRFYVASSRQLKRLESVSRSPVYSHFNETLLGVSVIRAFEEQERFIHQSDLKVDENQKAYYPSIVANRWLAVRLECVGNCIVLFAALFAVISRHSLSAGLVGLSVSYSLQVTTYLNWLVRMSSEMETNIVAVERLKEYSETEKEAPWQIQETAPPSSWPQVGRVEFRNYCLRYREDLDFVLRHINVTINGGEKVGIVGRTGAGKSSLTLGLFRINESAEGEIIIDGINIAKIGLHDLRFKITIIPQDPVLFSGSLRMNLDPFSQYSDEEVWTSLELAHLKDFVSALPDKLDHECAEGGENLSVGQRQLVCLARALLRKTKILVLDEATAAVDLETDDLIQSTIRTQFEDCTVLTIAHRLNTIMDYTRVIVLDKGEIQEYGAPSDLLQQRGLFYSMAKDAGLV

Row | SMILES | toxicity toward HeLa1A9 cells (HeLa1A9 cells) | CLint ([1]; formation of fraxetin-7-O-glucuronide by UGT1A9) | CLint ([1]; formation of fraxetin-8-O-glucuronide by UGT1A9) | changes in excretion rates, intracellular glucuronides and fmet values (BCRP [2]) | changes in excretion rates, intracellular glucuronides and fmet values (MRP1) | half-life [3] | maximal plasma concentration [3] | inhibitory action on transporter (MRP2) | inhibitory action on transporter (BCRP [4]) | half-maximal inhibitory concentration (IC50) compared with acarbose (α-glucosidase) | IC50 (cystathionine β-synthase) | Vmax (HeLa1A9 cell lysate)
1 | COc1cc2ccc(=O)oc2c(O)c1O [fraxetin] | no significant toxicity | 42 μL/min per milligram of protein | 300 μL/min per milligram of protein | did not cause any changes | did not cause any changes | 11 h | 2250 ng/mL and ~11 μM | absence of an inhibitory action | absence of an inhibitory action | significantly lower | 134 µM | –
2 | CC(C)c1cccc(C(C)C)c1O [propofol] | – | – | – | – | – | – | – | – | – | – | – | 3.2 ± 0.2 (^aaa) pmol/min/mg
